The values that follow come from ChEMBL document CHEMBL1201862, “PubChem BioAssay data set” (2004).

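These data come from cells grown in 96-well plates and exposed to compound for 48 hours at five concentrations. GI50: concentration for 50% inhibition of growth.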 Activity calls are given as the source filed them. No stated cut-off is given here; in the data, active = GI50 up to about 1.1 µM and inactive = higher.

Among the test systems are COLO 205; NCI-H522; MDA-MB-435; MDA-MB-231; UO-31; TK-10; SF-295; Hs-578T; RXF 393; SK-MEL-2; MDA-N; SW-620; M14; SK-MEL-5; SK-OV-3; OVCAR-4; UACC-62; EKVX; HT-29; NCI-H460.
Test in all cases: growth of human tumour cells (NCI), 48 h

Turning to `CCCC/C=C1/CCC(CN(C)C)C1=O` (stereo not given), the GI50 in the assay with COLO 205 is 1.42 µM (inactive); with NCI-H522, 0.656 µM (active); in the assay on MDA-MB-435 it was 11 µM (inactive); with MDA-MB-231, 2.82 µM (inactive); in the assay with UO-31, 2.3 µM (inactive); in the assay on TK-10, 1.01 µM (active). The GI50 is 6.71 µM (inactive) with SF-295; 3.18 µM (inactive) in the assay with Hs-578T; 1.77 µM (inactive) in the assay on RXF 393; 4.49 µM (inactive) in the assay on SK-MEL-2; 2.42 µM (inactive) in the assay with MDA-N; 1.14 µM (inactive) in the assay on SW-620. For the same compound, the GI50 was 1.71 µM (inactive) with M14; 9.02 µM (inactive) in the assay with SK-MEL-5; 12.9 µM (inactive) in the assay with SK-OV-3; 1.92 µM (inactive) with OVCAR-4; 2.09 µM (inactive) in the assay on UACC-62.

For `COC(=O)c1c(O)ccc2c1c1cc3ccccc3c(O)c1n2Cc1ccccc1Cl`, the GI50 is 16.8 µM (inactive) in the assay with COLO 205; 25.8 µM (inactive) in the assay with EKVX; 11.7 µM (inactive) in the assay on HT-29; 8.26 µM (inactive) in the assay with NCI-H522; 18.5 µM (inactive) with MDA-MB-435; 32.3 µM (inactive) with MDA-MB-231. Besides, the GI50 is 18.2 µM (inactive) in the assay on NCI-H460; 22.1 µM (inactive) with UO-31; 37.2 µM (inactive) in the assay on TK-10; 18.8 µM (inactive) in the assay with SF-295; 27.1 µM (inactive) in the assay with Hs-578T; 23 µM (inactive) with RXF 393. Besides, the GI50 in the assay on SK-MEL-2 is 17.7 µM (inactive); in the assay with MDA-N it was 23.7 µM (inactive); in the assay on M14, 23.4 µM (inactive); with SK-MEL-5 it was 19.1 µM (inactive); in the assay with SK-OV-3, 12.9 µM (inactive); with OVCAR-4, 11.6 µM (inactive). For the same compound, in the assay on UACC-62, the GI50 was 23.4 µM (inactive).

Consider `CC(=O)NC1CONC1=O` (stereo not given), for which the GI50 in the assay on COLO 205, with EKVX, with HT-29, in the assay on NCI-H522, in the assay on MDA-MB-435 and in the assay with MDA-MB-231 was > 100 µM (inactive) throughout. The GI50 in the assay on NCI-H460, in the assay on UO-31, in the assay on TK-10, with SF-295, in the assay on Hs-578T and in the assay with RXF 393 was > 100 µM (inactive) throughout. Further, the GI50 with SK-MEL-2, in the assay with MDA-N, in the assay on SW-620, in the assay on M14, in the assay with SK-MEL-5 and with SK-OV-3 was > 100 µM (inactive) each time. Besides, the GI50 in the assay with OVCAR-4 and in the assay on UACC-62 was > 100 µM (inactive) each time.

Take `O=c1c2cc3c(=O)n4c(cc(-c5ccccc5)c5cc(Cl)ccc54)nc3cc2nc2cc(-c3ccccc3)c3cc(Cl)ccc3n12`: the GI50 in the assay with COLO 205 was > 100 µM (inactive); in the assay on EKVX, 75.3 µM (inactive); with HT-29 it was > 100 µM (inactive); in the assay with NCI-H522 it was > 100 µM (inactive); in the assay on MDA-MB-435 it was > 100 µM (inactive); in the assay with MDA-MB-231 it was 39.4 µM (inactive). Also, the GI50 in the assay with NCI-H460 is > 100 µM (inactive); in the assay with UO-31, 37.8 µM (inactive); in the assay on TK-10, > 100 µM (inactive); with SF-295 it was > 100 µM (inactive); in the assay on Hs-578T, 43.4 µM (inactive); in the assay with RXF 393, 34.8 µM (inactive). The GI50 in the assay with SK-MEL-2, with MDA-N, in the assay with SW-620, with M14, in the assay with SK-MEL-5 and in the assay with SK-OV-3 was > 100 µM (inactive) in each case. The GI50 with UACC-62 was > 100 µM (inactive).

`O=C(c1ccccc1)C1C(c2ccccc2[N+](=O)[O-])N1C1CCCCC1` (stereo not given): the GI50 was 7.26 µM (inactive) in the assay with COLO 205; 13.7 µM (inactive) with EKVX; 4.1 µM (inactive) in the assay on HT-29; 2.11 µM (inactive) in the assay with NCI-H522; 2.6 µM (inactive) in the assay on MDA-MB-435; 7.69 µM (inactive) in the assay with MDA-MB-231. Further, the GI50 in the assay on NCI-H460 was 9.2 µM (inactive); with UO-31, 6.61 µM (inactive); with TK-10, 2.74 µM (inactive); in the assay on SF-295, 15.4 µM (inactive); in the assay on Hs-578T it was 10.3 µM (inactive); in the assay on RXF 393, 4.27 µM (inactive). In addition, the GI50 was 5.21 µM (inactive) in the assay on SK-MEL-2; 2.06 µM (inactive) with MDA-N; 9.42 µM (inactive) in the assay with M14; 11 µM (inactive) in the assay with SK-MEL-5; 22.1 µM (inactive) in the assay on SK-OV-3; 9.33 µM (inactive) in the assay with OVCAR-4. Also, the GI50 in the assay on UACC-62 was 7.4 µM (inactive).

For the compound `COC(=O)C1(C(=O)OC)CC2=C(S(=O)(=O)c3ccccc3)C[C@H](C#N)[C@H]2C1`, the GI50 in the assay with COLO 205 was 68.5 µM (inactive); in the assay with EKVX, > 100 µM (inactive); in the assay on HT-29, > 100 µM (inactive); with NCI-H522, 46.3 µM (inactive); with MDA-MB-435, 49.1 µM (inactive); in the assay on MDA-MB-231, > 100 µM (inactive). The GI50 with UO-31, in the assay with TK-10, with SF-295, with Hs-578T, in the assay with RXF 393 and in the assay on SK-MEL-2 was > 100 µM (inactive) throughout. The GI50 was 79.4 µM (inactive) in the assay with MDA-N; > 100 µM (inactive) in the assay with SW-620; > 100 µM (inactive) with M14; > 100 µM (inactive) in the assay on SK-MEL-5; > 100 µM (inactive) in the assay on SK-OV-3; > 100 µM (inactive) in the assay with OVCAR-4. Besides, the GI50 with UACC-62 was > 100 µM (inactive).

`C/C(=C/C(=O)Nn1c(Cc2ccccc2)n[nH]c1=O)C(=O)O`: the GI50 in the assay on COLO 205, with EKVX, in the assay on HT-29, with NCI-H522, with MDA-MB-435 and in the assay on MDA-MB-231 was > 100 µM (inactive) each time. The GI50 in the assay on NCI-H460, with UO-31, in the assay on TK-10, in the assay with SF-295, in the assay with Hs-578T and with RXF 393 was > 100 µM (inactive) throughout. The GI50 with SK-MEL-2, in the assay with MDA-N, in the assay on SW-620, with M14, in the assay with SK-MEL-5 and in the assay on SK-OV-3 was > 100 µM (inactive) in each case. Also, the GI50 with OVCAR-4 and with UACC-62 was > 100 µM (inactive) throughout.

Turning to `O=S1(=O)CCC2=CC(C(F)(F)F)=CC(C(F)(F)F)=CN21`, the GI50 is 0.454 µM (active) in the assay on COLO 205; 2.93 µM (inactive) in the assay with EKVX; 1.53 µM (inactive) with HT-29; 0.236 µM (active) in the assay with NCI-H522; 1.82 µM (inactive) in the assay with MDA-MB-435; 2.78 µM (inactive) in the assay with MDA-MB-231. The GI50 in the assay on NCI-H460 was 2.59 µM (inactive); in the assay with UO-31 it was 0.805 µM (active); with TK-10, 0.697 µM (active); with SF-295, 2.12 µM (inactive); in the assay with Hs-578T, 3.1 µM (inactive); in the assay with RXF 393, 1.47 µM (inactive). Further, the GI50 is 1.82 µM (inactive) in the assay on SK-MEL-2; 0.792 µM (active) in the assay with MDA-N; 0.302 µM (active) in the assay with SW-620; 0.693 µM (active) in the assay with M14; 1.42 µM (inactive) in the assay on SK-MEL-5; 3.86 µM (inactive) with SK-OV-3. For the same compound, the GI50 in the assay on OVCAR-4 was 1.71 µM (inactive); in the assay with UACC-62 it was 1.64 µM (inactive).

As to `CC1(C)C(=O)N(O)C(C)(C)N1O`, the GI50 in the assay on COLO 205, in the assay on EKVX, with HT-29, with NCI-H522, in the assay with MDA-MB-435 and with MDA-MB-231 was > 10 µM (inactive) each time. Besides, the GI50 in the assay with NCI-H460, with TK-10, with SF-295, in the assay with Hs-578T, in the assay on RXF 393 and in the assay with SK-MEL-2 was > 10 µM (inactive) in each case. Further, the GI50 with MDA-N, in the assay with SW-620, in the assay on M14, in the assay on SK-MEL-5, in the assay with SK-OV-3 and with OVCAR-4 was > 10 µM (inactive) each time. Further, in the assay with UACC-62, the GI50 was > 10 µM (inactive).

On to `O=C1/C(=C/c2ccc(Cl)cc2)N=C(c2ccccc2)N1C1Nc2cc3c(cc2S1)NC(N1C(=O)/C(=C/c2ccc(Cl)cc2)N=C1c1ccccc1)S3` (stereo not given), for which the GI50 in the assay on EKVX was > 100 µM (inactive); with HT-29, 52.6 µM (inactive); in the assay on NCI-H522 it was 18.7 µM (inactive); in the assay with MDA-MB-435, 52.8 µM (inactive); in the assay with MDA-MB-231, > 100 µM (inactive); in the assay on NCI-H460, 30.4 µM (inactive). Moreover, the GI50 with UO-31 is 80.2 µM (inactive); in the assay on TK-10, > 100 µM (inactive); in the assay on SF-295, 73.5 µM (inactive); with Hs-578T, 35.2 µM (inactive); in the assay on RXF 393, 76.6 µM (inactive); with SK-MEL-2, 88.9 µM (inactive). Further, the GI50 is 45.2 µM (inactive) with MDA-N; 22 µM (inactive) in the assay with SW-620; > 100 µM (inactive) with M14; 34.2 µM (inactive) with SK-MEL-5; > 100 µM (inactive) in the assay on SK-OV-3; 59.2 µM (inactive) with OVCAR-4.
